Key:
physchem [1] = conditions: pH 7.4
physchem [2] = conditions: octanol/0.05 M phosphate buffer, pH 7.4
Description: Compound was evaluated for apparent partition coefficient (log P) between octanol and 0.05 M phosphate buffer solution of pH 7.40

## CC[C@H](C(=O)OCc1ccccc1)[C@H](CO)Cc1cncn1C
Physchem [1]
  half-life: 50 min
Physchem [2]
  logD: 1.82

## CCCCOC(=O)[C@@H](CC)[C@H](CO)Cc1cncn1C
Physchem [1]
  half-life: 820 min
Physchem [2]
  logD: 1.58

## CCOC(=O)[C@@H](CC)[C@H](CO)Cc1cncn1C
Physchem [1]
  half-life: 510 min
Physchem [2]
  logD: 0.58

## CC[C@H](C(=O)OCc1ccc(Cl)cc1)[C@H](CO)Cc1cncn1C
Physchem [1]
  half-life: 30 min
Physchem [2]
  logD: 2.54

## CCCCCCOC(=O)[C@@H](CC)[C@H](CO)Cc1cncn1C
Physchem [1]
  half-life: 1100 min
Physchem [2]
  logD: 2.56

## CC[C@H](C(=O)OCc1ccccc1C)[C@H](CO)Cc1cncn1C
Physchem [1]
  half-life: 139 min
Physchem [2]
  logD: 2.27

## CC[C@H](C(=O)OC(C)c1ccccc1)[C@H](CO)Cc1cncn1C (stereo partly drawn)
Physchem [1]
  half-life: 475 min
Physchem [2]
  logD: 2.08

## CC[C@H](C(=O)OCc1ccc(C)cc1)[C@H](CO)Cc1cncn1C
Physchem [1]
  half-life: 77 min
Physchem [2]
  logD: 2.31

## CC[C@H](C(=O)OCCc1ccccc1)[C@H](CO)Cc1cncn1C
Physchem [1]
  half-life: 227 min
Physchem [2]
  logD: 2.16
